# Measured values published in article PMC6661952 (BMC Chemistry, 2019).
# Where “and” joins values, the source holds several entries; their conditions need not be identical. Equal entries are not always repeated. Where two headings read alike, the source gives them in different places.
# Conditions: for Log k (logarithm of the retention factor): C18 column, methanol-water; for φ 0 (isocratic chromatographic hydrophobicity index): φ 0 = − log kw/S, methanol as organic modifier, C18; for Log kw (lipophilicity chromatographic index, intercept of log k = log kw − S φ): extrapolated to pure water as eluent, C18, methanol-water
# Experimental: For chromatographic analysis, stock solutions (200 μg/mL) of each of the investigated samples were prepared in methanol. HPLC measurements were performed utilizing Shimadzu Prominence HPLC system (Shimadzu Corporation, Japan) consisting of LC-20 AD pump, DGU-20 A5 degasser, CBM-20A interface, and SPD-20A UV–Vis detector with a 20 µL injection loop. The column utilized for studying the chromatographic behavior of the analytes was the most frequently used for lipophilicity investigations: Waters symmetry® C18 column [250 mm × 4.6 mm (i.d.), 5-μm particle size]. The flow rate was 1.2 mL/min at room temperature. The retention behaviour of the analytes was investigated as a function of mobile phase composition ranging from 60–80% methanol and 40–20% water. The HPLC analyses were carried out at room temperature under isocratic conditions. Membrane filters (0.45 μm) from Sartorius (Goettingen, Germany) were used for filtration of samples. The absorbance of the analytes during a chromatographic run was performed at 200 nm. Each experiment was run in duplicate. Chromatographic data were collected using LabSolutions CS software. H^1NMR spectra were recorded using Bruker NMR spectrometer (Bruker GmbH, Germany),
# It was shown from previous reports that the chromatographic systems using methanol: water as mobile phases were better for log k modeling than those containing acetonitrile as an organic modifier. […] Chromatographic techniques including HPLC are based on the determination of the retention parameters. The indices of lipophilicity measured by HPLC are obtained from the logarithm of the retention factor (log k), which is calculated by the following equation:1 logk=logtr-t0/t0 where; tR is the retention time of the solute and t0 is the retention time of unretained species.
# Estimating log kw directly is often very difficult, and is nearly non-feasible, because it can produce elongated retention time and also extreme peak broadening. […] Consequently, to obtain log kw, an extrapolation to 100% of pure water was carried out. Then, linear regression analysis was performed. Linear extrapolation is favored using definite ratios of organic modifier consistent with the lipophilicity level of the solutes.
# Another substitute to the index of lipophilicity is the chromatographic index of hydrophobicity φ 0 which was first given by Valkò et al.. It is calculated simply by the equation: φ 0 = − log kw/S. φ0 denotes the volume fraction of the organic modifier in the mobile phase at which equal partitioning of the solute between the mobile and stationary phases is obtained, that is, k = 1, log k = 0 [22]. The value of φ 0 is specific for each compound; it relies solely on the pH, organic modifier and temperature.
# [1] = 65% methanol in the mobile phase
# [2] = 70% methanol in the mobile phase
# [3] = 75% methanol in the mobile phase
# [4] = 60% methanol in the mobile phase
Log k (logarithm of the retention factor) [1],Log k (logarithm of the retention factor) [2],Log k (logarithm of the retention factor) [3],Log k (logarithm of the retention factor) (80% methanol in the mobile phase),Log k (logarithm of the retention factor) [4],φ 0 (isocratic chromatographic hydrophobicity index),"Log kw (lipophilicity chromatographic index, intercept of log k = log kw − S φ)",SMILES
0.053,–,–,–,0.130,64.39,1.941 and 1.94,O=S(=O)(C/C(=N/O)c1ccccc1)c1ccccc1 [Compound 16a]
0.280,0.150,–,–,0.481,72.57,2.715 and 2.72,Cc1ccc(/C(CS(=O)(=O)c2ccccc2)=N\O)cc1 [Compound 16b]
0.824,0.740,–,–,0.950,77.97,4.59,O=S(=O)(C/C(=N/Nc1ccccc1)c1ccccc1)c1ccccc1 [Compound 17a]
0.743,0.611,–,–,0.847,74.52,5.182 and 5.18,Cc1ccc(/C(CS(=O)(=O)c2ccccc2)=N\Nc2ccccc2)cc1 [Compound 17b]

# Further lines, the compound ahead of its results:
SMILES,Log k (logarithm of the retention factor) [1],Log k (logarithm of the retention factor) [2],Log k (logarithm of the retention factor) [3],Log k (logarithm of the retention factor) (80% methanol in the mobile phase),Log k (logarithm of the retention factor) [4],φ 0 (isocratic chromatographic hydrophobicity index),"Log kw (lipophilicity chromatographic index, intercept of log k = log kw − S φ)"
"Cc1ccc(-c2cc(C(F)(F)F)nn2-c2ccc(S(N)(=O)=O)cc2)cc1 [Celecoxib, 4-[5-(4-methylphenyl)-3-(trifluoromethyl)pyrazol-1yl]benzenesulfonamide, reference compound]",0.950,0.83,0.530,0.235,–,–,–
O=C(CS(=O)(=O)c1ccccc1)c1ccccc1 [Compound 11a],0.041,–,–,–,0.088,64.83,–
Cc1ccc(C(=O)CS(=O)(=O)c2ccccc2)cc1 [Compound 11b],0.493,–,–,–,0.317,69.81,3.597 and 3.60
O=C(CS(=O)(=O)c1ccccc1)c1ccc(Br)cc1 [Compound 11c],0.501,0.123,–,–,0.635,75.14,3.151 and 3.15
Cc1ccc(S(=O)(=O)CC(=O)c2ccc(Br)cc2)cc1 [Compound 11d],0.901,0.364,0.123,–,–,77.99,4.784 and 4.78
